In US11331341B2, “Combination therapies that enhance antimicrobial/anticancer activities” (International Business Machines Corporation, priority 2020, dated 2022):
In brackets after ≈: the same amount, converted by molar mass. Where two headings read alike, the source gives them in different places.

Legend:
[1] = tested on: therapeutic-susceptible MCF7 cancer cells; experiment: Cytotoxicity against therapeutic-susceptible MCF7; type: cell-based; details: Homo sapiens
Experimental: (§1) Further, Table 2 regards anticancer activity against therapeutic-susceptible MCF7 cancer cells with an incubation time of 48 hours. For the combination therapies, the cancer cells were treated with the antimicrobial polymer for 4 hours followed by treatment with doxorubicin for 44 hours. Also, Table 3 regards anticancer activity against therapeutic-resistant MCF7 cancer cells with an incubation time of 48 hours. For the combination therapies, the cancer cells were treated with the antimicrobial polymer for 4 hours followed by treatment with doxorubicin for 44 hours.

BT474 cell line = experiment: cells; details: Homo sapiens, BT-474, read-out: absolute IC50 in treating BT474
Description: Cytotoxicity graph 2100 regards treating BT474 solely with doxorubicin.

[2] = tested on: therapeutic-resistant MCF7/ADR cell line; experiment: Cytotoxicity against therapeutic-resistant MCF7/ADR; type: cell-based; details: Homo sapiens
Experimental: as §1

[3] = tested on: therapeutic-resistant SK-OV-3-TR cell line; experiment: Cytotoxicity against SK-OV-3-TR; type: cell-based; details: SKOV3TR; FIG. 25; read-out: absolute IC50 in treating SK-OV-3-TR
Description: Cytotoxicity graph 2500 regards treating SK-OV-3-TR solely with paclitaxel. […] Cytotoxicity graph 2502 regards treating SK-OV-3-TR solely with the example quaternary ammonium functionalized antimicrobial polymer 1402 (e.g., wherein “n” equals 21). […] Cytotoxicity graph 2504 regards treating SK-OV-3-TR solely with the example guanidinium functionalized antimicrobial polymer 1404 (e.g., wherein “m” equals 20). […] Cytotoxicity graph 2506 regards treating SK-OV-3-TR with a combination therapy of paclitaxel with 0.5 IC50 of the example quaternary ammonium functionalized antimicrobial polymer 1402 (e.g., wherein “n” equals 21). […] Cytotoxicity graph 2508 regards treating SK-OV-3-TR with a combination therapy of paclitaxel with 0.5 IC50 of example guanidinium functionalized antimicrobial polymer 1404 (e.g., wherein “m” equals 20).

[4] = tested on: MCR-1-positive E. coli strains; experiment: Checkerboard assay / MIC, MCR-1-positive colistin-resistant E. coli; type: cell-based; details: for MIC against MCR-1-positive E. coli: alone
Description: Repetitive description of like elements employed in other embodiments described herein is omitted for sake of brevity.
Plasmid-mediated colistin-resistance has been reported in Gram-negative bacteria, which resulted from a MCR-1 enzyme that catalyzes the transfer of phosphoethanolamine to lipid A; thereby rendering the membrane more electropositive.

[5] = MCF7, FIG. 22 and FIG. 24, read-out: absolute IC50 in treating MCF7
[6] = NCI/ADR-RES, FIG. 23 and FIG. 24, read-out: absolute IC50 in treating MCF7/ADR

Compound COc1cccc2c1C(=O)c1c(O)c3c(c(O)c1C2=O)C[C@@](O)(C(=O)CO)C[C@@H]3O[C@H]1C[C@H](N)[C@H](O)[C@H](C)O1 [DOX, doxorubicin] has an IC50 [1, 5] of 0.15 µg/mL, an IC50 ([1]; MCF7, incubation 48 hours, combinations: polymer for 4 hours followed by doxorubicin for 44 hours, read-out: Absolute IC50) of 0.054 µg/mL and an IC50 (BT474 cell line) of 8.42 µg/mL (≈ 15.5 µM). For the same compound, the IC50 [2, 6] was 139 µg/mL and the IC50 ([2]; therapeutic-resistant MCF7, incubation 48 hours, combinations: polymer for 4 hours followed by doxorubicin for 44 hours, read-out: Absolute IC50) was 375 µg/mL.

In the case of CC(=O)O[C@H]1C(=O)[C@@]2(C)[C@H]([C@H](OC(=O)c3ccccc3)[C@]3(O)C[C@H](OC(=O)[C@H](O)[C@@H](NC(=O)c4ccccc4)c4ccccc4)C(C)=C1C3(C)C)[C@]1(OC(C)=O)CO[C@@H]1C[C@@H]2O [paclitaxel], the IC50 [1, 5] is reported as 19.7 µg/mL, the IC50 [2, 6] is reported as 5150 µg/mL and the IC50 [3] is reported as 27.4 µg/mL (≈ 32.1 µM).

colistimethate sodium was tested, and the “MIC against MCR-1-positive E. coli” value ([4]; first of two MCR-1-positive E. coli strains) was 15.6 µg/mL and the “MIC against MCR-1-positive E. coli” value ([4]; second of two MCR-1-positive E. coli strains) was 31.3 µg/mL.

colistin was tested, and the “colistin MIC against MCR-1 colistin-resistant bacteria” value ([4]; with pQuat_20 at ½×MIC) was under 0.49 µg/mL.
